We go through 2 molecules from patent US20090246185A1, “CARDIAC DYSFUNCTION-AMELIORATING AGENT OR CARDIAC FUNCTION-MAINTAINING AGENT” (KANEKA CORPORATION, priority 2006, published 2009).

Marks after values point to notes of the source that are not given here.

Data set [1] deals with ischemia-reperfusion model. Nature of the data set: Cardiac function evaluation (left ventricular end-diastolic pressure) in rat ischemia-reperfusion model. It is filed as in vivo. The conditions noted are these: for left ventricle end-diastolic pressure: male SD rats, LAD occlusion 30 min then reperfusion, 30 mg/kg per day oral in corn oil, 1 week before and 4 weeks after operation, mean ± standard error; for effect on elevation of the end-diastolic pressure (cardiac function), in words: rat ischemia-reperfusion model, 30 mg/kg per day oral, vs. control group. Here is the method: (§1) Male SD rats (9-week-old, Japan SLC Inc.) were divided into four groups. Each rat was anesthetized with pentobarbital sodium (35-45 mg/kg, i.p.), and fixed at the dorsal position. A tracheal tube was orally inserted into the airway, artificial respiration was performed by an artificial respirator for small animals, and the medial wall of the thorax was opened to expose the heart. In three groups, the left anterior descending artery (LAD) was obstructed for 30 min with a surgical needle with a thread. At this time, an electrocardiogram was measured via an amplifier for electrocardiogram, and the presence or absence of occlusion was confirmed based on the changes in the ST electrical potential and cardiac muscle color. An ischemia-reperfusion model was prepared by reperfusing the blood flow after 30 min from the occlusion. Thereafter, in all groups, the thorax was closed, sutured, and disinfected with a veterinary Isodine solution.
(§2) The following samples were administered to each group for 1 week before the above-mentioned operation and 4 weeks after the operation (total 5 weeks).
(§3) Group for which occlusion treatment was performed, and oxidized coenzyme Q10 dissolved in corn oil was orally administered at a dosage of 30 mg/kg per day based on the amount of oxidized coenzyme Q10
(§4) Group for which occlusion treatment was performed, and […] dissolved in corn oil was orally administered at a dosage of 30 mg/kg per day based on the amount of reduced coenzyme Q10
After measuring the body weight on the next day of the final administration, the rats were fixed at the dorsal position under pentobarbital sodium (25-35 mg/kg, i.p.) anesthesia, and a mirror catheter was inserted into the right carotid artery. After confirmation of the stable condition, the left ventricle internal pressure wave pattern was led to a biological electric amplifier to enlarge same, and the left ventricular end-diastolic pressure (LVEDP) was measured.

Data set [2] has as its system ischemia-reperfusion model. Nature of the data set: Heart weight (body weight ratio) in rat ischemia-reperfusion model. It is filed as in vivo. The conditions noted are these: for body weight ratio of heart weight: left atrium / body weight ratio of heart weight: left ventricle / body weight ratio of heart weight: right atrium / body weight ratio of heart weight: right ventricle: male SD rats, ischemia-reperfusion, 30 mg/kg per day oral in corn oil, 5 weeks, average; for effect on increase in heart weight (edema), in words: rat ischemia-reperfusion model, 30 mg/kg per day oral, vs. control group. How it is done: as §1, §2, §3, §4
After cardiac function evaluation, the animals were euthanized by dislocation of cervical spine under anesthesia, and the heart was removed. The right atrium weight, left atrium weight, right ventricle weight, left ventricle weight and overall weight of the heart (weight of both atria+weight of both ventricles) were measured. For evaluation, the body weight ratio of the right atrium weight, the body weight ratio of the left atrium weight, the body weight ratio of the right ventricle weight and the body weight ratio of the left ventricle weight were calculated.

The nature of data set [3]: Absorbability evaluation: total coenzyme Q10 in plasma and heart by HPLC. The conditions noted are these: male SD rats, 100 mg/kg oral in soybean oil once a day for 4 weeks; average, N=3.
Procedure: Male SD rats (5-week-old, Japan SLC Inc.) were each orally administered with soybean oil (control group), oxidized coenzyme Q10 (100 mg/kg) dissolved in soybean oil (oxidized coenzyme Q10 group) and reduced coenzyme Q10 (containing 1 wt % of oxidized coenzyme Q10; 100 mg/kg) dissolved in soybean oil (reduced coenzyme Q10 group) once a day for 4 consecutive weeks (each group N=3). After completion of the administration, blood samples were taken and the heart was removed, and the total amount of coenzyme Q10 (total amount of oxidized coenzyme Q10 and reduced coenzyme Q10) in plasma and heart was quantified by HPLC according to a conventional method.
Data set [4] concerns rats. The conditions noted are these: 1200 mg/kg/day consecutive administration for 52 weeks; cited from earlier work.

Consider `COc1c(O)c(C)c(C/C=C(\C)CC/C=C(\C)CC/C=C(\C)CC/C=C(\C)CC/C=C(\C)CC/C=C(\C)CC/C=C(\C)CC/C=C(\C)CC/C=C(\C)CCC=C(C)C)c(O)c1OC` [reduced coenzyme Q10], for which, in data set [1], the “left ventricle end-diastolic pressure” value is listed as 5.7 ± 0.4 mmHg and the “effect on elevation of the end-diastolic pressure (cardiac function), in words” value is “significant suppression of elevation of the end-diastolic pressure”. Further, in data set [2], the “body weight ratio of heart weight: left atrium” value is on record as 0.089, the “body weight ratio of heart weight: left ventricle” value was found to be 1.879, the “body weight ratio of heart weight: right atrium” value was determined as 0.146 and the “body weight ratio of heart weight: right ventricle” value stood at 0.508. The “effect on increase in heart weight (edema), in words” value in data set [2] was “suppressed increase in the heart weight in all parts”. Besides, in data set [3], the “total coenzyme Q10 concentration in heart” value stood at 9.33 µg/mL and the “total coenzyme Q10 concentration in plasma” value is listed as 0.39* μg/ml.
As for `COC1=C(OC)C(=O)C(C/C=C(\C)CC/C=C(\C)CC/C=C(\C)CC/C=C(\C)CC/C=C(\C)CC/C=C(\C)CC/C=C(\C)CC/C=C(\C)CC/C=C(\C)CCC=C(C)C)=C(C)C1=O` [oxidized coenzyme Q10, reference compound], in data set [1], the “left ventricle end-diastolic pressure” value was determined as 8.3 ± 0.7 mmHg and the “effect on elevation of the end-diastolic pressure (cardiac function), in words” value is on record as “did not provide an ameliorating effect”. In data set [2], the “body weight ratio of heart weight: left atrium” value is given as 0.081, the “body weight ratio of heart weight: left ventricle” value turned out to be 1.823, the “body weight ratio of heart weight: right atrium” value was found to be 0.135 and the “body weight ratio of heart weight: right ventricle” value was 0.498. In data set [2], the “effect on increase in heart weight (edema), in words” value is “suppressed increase in the heart weight in all parts”. In data set [4], the “toxic influence in chronic toxicity test” value was “did not show a toxic influence”.
